These results are taken from ChEMBL document CHEMBL1201862, “PubChem BioAssay data set” (2004).

Each structure is given as a SMILES string.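 Each compound was tested at five concentrations against cells in 96-well plates for 48 hours. At the GI50, growth is halved.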 Activity calls are given as the source filed them. Cut-off read from the data, not from the text of the source: active = GI50 up to about 1.1 µM and inactive = higher. A value given as a limit tells only on which side of the number the result lay.

Test in all cases: growth of human tumour cells (NCI), 48 h
Test [1] deals with EKVX.
Test [2] relates to RPMI-8226.
Test [3] relates to MDA-MB-231.
For test [4], the system named is Malme-3M.
Test [5] deals with IGROV-1.
Test [6] deals with RXF 393.
Test [7] deals with UO-31.
The subject of test [8] is SF-295.
For test [9], the system named is SK-MEL-28.
For test [10], the system named is SNB-75.
The subject of test [11] is NCI-H460.
The test system of test [12] is U-251.
The test system of test [13] is HCT-15.
For test [14], the system named is TK-10.
Test [15] deals with ACHN.
In test [16] the test system is NCI-H226.
Test [17] has as its system MOLT-4.
For test [18], the system named is SK-MEL-5.
In test [19] the test system is A549.
The subject of test [20] is UACC-62.

Regarding `COc1c(C)c2nc3ccccc3nc2c2c(O)ccnc12`, the GI50 is > 100 µM (inactive) in test [1]; > 100 µM (inactive) in test [2]; > 100 µM (inactive) in test [3]; > 100 µM (inactive) in [4]; 43.3 µM (inactive) in [5]; 19.3 µM (inactive) in test [6]. For the same molecule, the GI50 in [7] was > 100 µM (inactive); in test [8], 43.2 µM (inactive); in [9], > 100 µM (inactive); in test [10], 7.13 µM (inactive); in test [11] it was 53.5 µM (inactive); in [12], 54.5 µM (inactive). Moreover, the GI50 was more than 100 µM in test [13]; 64.4 µM (inactive) in [14]; 30.1 µM (inactive) in test [15]; > 100 µM (inactive) in [16]; > 100 µM (inactive) in [17]; 35.6 µM (inactive) in test [18]. In addition, the GI50 in test [19] was 37.1 µM (inactive).
On to `CCN(CC)CCc1c2c(nc3ccccc13)C(=O)c1cccnc1C2=O`, for which the GI50 is 2.89 µM (inactive) in test [1]; 1.88 µM (inactive) in [2]; 1.83 µM (inactive) in test [3]; 2.02 µM (inactive) in [4]; 1.74 µM (inactive) in test [5]; 2.37 µM (inactive) in [6]. Further, the GI50 in test [7] is 1.57 µM (inactive); in [8], 2.02 µM (inactive); in test [9], 1.8 µM (inactive); in [10], 5.65 µM (inactive); in [12], 2.88 µM (inactive); in test [13], 0.188 µM. The GI50 is 2.66 µM (inactive) in test [14]; 0.719 µM (active) in test [15]; 4.68 µM (inactive) in [16]; 3.24 µM (inactive) in test [17]; 1.54 µM (inactive) in [20]; 0.209 µM (active) in [18]. Besides, the GI50 in [19] is 2.88 µM (inactive).
As to `O=C1C(=CNc2ccc([N+](=O)[O-])cc2)C(=O)N(c2ccccc2)C(=O)N1c1ccccc1`, the GI50 in test [1] was > 100 µM (inactive); in test [2], 71.6 µM (inactive); in test [3] it was > 100 µM (inactive); in test [4], > 100 µM (inactive); in [5], > 100 µM (inactive); in [6] it was > 100 µM (inactive). For the same molecule, the GI50 is > 100 µM (inactive) in test [7]; 66.2 µM (inactive) in [8]; 71.6 µM (inactive) in test [10]; > 100 µM (inactive) in [11]; > 100 µM (inactive) in test [12]; 76 µM in test [13]. Moreover, the GI50 in test [14] was 25.5 µM (inactive); in [15], 64.7 µM (inactive); in test [16], > 100 µM (inactive); in test [17] it was > 100 µM (inactive); in test [20], 41.3 µM (inactive); in [18], > 100 µM (inactive). Besides, the GI50 in test [19] was > 100 µM (inactive).
In the case of `O=c1cc(N2CCOCC2)n2c(ccc3ccccc32)n1`, the GI50 in test [1], in test [2], in test [3], in test [4], in test [5] and in [6] was > 100 µM (inactive) in each case. The GI50 in test [7] was > 100 µM (inactive); in [8], > 100 µM (inactive); in [10], > 100 µM (inactive); in test [12], > 100 µM (inactive); in test [13] it was more than 100 µM; in test [14] it was > 100 µM (inactive). The GI50 in test [15], in test [16], in [17], in test [20], in test [18] and in [19] was > 100 µM (inactive) in each case.
Turning to `CC1=Nc2nc3ccccc3n2C(C)(C)C1`, the GI50 in test [1] is > 100 µM (inactive); in test [2], > 100 µM (inactive); in [3], > 100 µM (inactive); in test [4], 4.54 µM (inactive); in test [5], > 100 µM (inactive); in test [6], > 100 µM (inactive). Also, the GI50 in test [7] was > 100 µM (inactive); in [8] it was > 100 µM (inactive); in test [10] it was > 100 µM (inactive); in test [11] it was > 100 µM (inactive); in test [12] it was > 100 µM (inactive); in test [13] it was more than 100 µM. The GI50 in test [14], in test [15], in test [16], in test [17], in test [20] and in [18] was > 100 µM (inactive) each time. The GI50 in test [19] is > 100 µM (inactive).
Consider `O=C1C2=Cc3ccccc3OC2(O)Oc2ccccc21` (stereo not drawn), for which the GI50 in [1], in test [2], in [3], in [4], in test [5] and in [6] was > 100 µM (inactive) each time. Further, the GI50 in test [8] was > 100 µM (inactive); in test [9], > 100 µM (inactive); in test [10], 52.2 µM (inactive); in test [12], > 100 µM (inactive); in [13], more than 100 µM; in test [14] it was > 100 µM (inactive). Moreover, the GI50 in test [16], in [17], in test [20], in test [18] and in test [19] was > 100 µM (inactive) in each case.
With `COc1ccc(C2CC(c3ccc4ccccc4c3O)=NN2)cc1OC` (stereo not drawn), the GI50 is 30.4 µM (inactive) in test [2]; 25.2 µM (inactive) in test [3]; 61.8 µM (inactive) in test [4]; 83.4 µM (inactive) in test [5]; 74.1 µM (inactive) in test [6]; 46.2 µM (inactive) in test [7]. Further, the GI50 was 44.8 µM (inactive) in test [8]; 76.4 µM (inactive) in test [9]; 56.4 µM (inactive) in test [10]; 34.6 µM (inactive) in test [11]; 44.1 µM (inactive) in test [12]; 41.7 µM in test [13]. The GI50 in [14] is 95.1 µM (inactive); in [15] it was 54.5 µM (inactive); in test [16] it was > 100 µM (inactive); in [17], 24.7 µM (inactive); in test [20] it was 42.4 µM (inactive); in test [18] it was 58.5 µM (inactive). In test [19], the GI50 was 38 µM (inactive).
Take `CCOC(=O)/C1=C(\C)N(c2ccc(C)cc2)C(=O)c2ccccc2C(=O)c2c(OC(C)=O)ccc(OC(C)=O)c21`: the GI50 is 13.8 µM (inactive) in [2]; 12.9 µM (inactive) in test [3]; 28.1 µM (inactive) in [4]; 4.01 µM (inactive) in test [5]; 22.2 µM (inactive) in [6]; 38.5 µM (inactive) in test [7]. Also, the GI50 was 14.5 µM (inactive) in test [8]; < 0.01 µM (active) in [9]; 25.8 µM (inactive) in test [10]; 18.3 µM (inactive) in test [11]; 24.9 µM (inactive) in [12]; 16.4 µM in test [13]. Also, the GI50 was 19.3 µM (inactive) in test [14]; 16.8 µM (inactive) in test [15]; 14.6 µM (inactive) in test [16]; 6.27 µM (inactive) in test [17]; 15 µM (inactive) in test [20]; 30 µM (inactive) in [18]. Moreover, the GI50 in test [19] was 26.8 µM (inactive).
`O=C(C#Cc1cn(C2CC(O)C(CO)O2)c(=O)[nH]c1=O)c1ccccc1` (stereo not drawn): the GI50 is > 100 µM (inactive) in [1]; 44 µM (inactive) in test [2]; > 100 µM (inactive) in test [3]; 12.2 µM (inactive) in test [4]; > 100 µM (inactive) in [5]; 17.5 µM (inactive) in test [6]. In addition, the GI50 in test [7] is > 100 µM (inactive); in [8], > 100 µM (inactive); in test [9] it was 39.5 µM (inactive); in test [10] it was > 100 µM (inactive); in test [11] it was > 100 µM (inactive); in test [12] it was > 100 µM (inactive). For the same molecule, the GI50 was more than 100 µM in [13]; > 100 µM (inactive) in test [14]; 83.4 µM (inactive) in [15]; 70 µM (inactive) in test [16]; > 100 µM (inactive) in test [20]; 88.7 µM (inactive) in test [18]. For the same molecule, the GI50 in test [19] was > 100 µM (inactive).
As to `Cc1cc2nc3c(C#N)c4c(c(Cl)n3c2cc1C)CCC4`, the GI50 was 61.1 µM (inactive) in [1]; 16 µM (inactive) in [2]; 15.9 µM (inactive) in [3]; 52.8 µM (inactive) in [4]; 16.6 µM (inactive) in test [6]; > 100 µM (inactive) in test [8]. Besides, the GI50 was 29.2 µM (inactive) in [9]; > 100 µM (inactive) in [10]; 37.6 µM (inactive) in test [11]; 15.1 µM (inactive) in [12]; 17.6 µM in test [13]; 24.7 µM (inactive) in [14]. In addition, the GI50 was 24.6 µM (inactive) in test [15], 74.1 µM (inactive) in [16], 26 µM (inactive) in test [17] and 21.9 µM (inactive) in [18].
Regarding `CCOP(=O)(OCC)C1C(CO)OC(n2ccc(=O)[nH]c2=O)C1O` (stereo not drawn), the GI50 in test [1], in [2], in test [3], in [4], in [5] and in [6] was > 100 µM (inactive) throughout. The GI50 was > 100 µM (inactive) in test [7]; > 100 µM (inactive) in test [8]; > 100 µM (inactive) in test [9]; 35.9 µM (inactive) in test [10]; > 100 µM (inactive) in test [11]; more than 100 µM in [13]. The GI50 in [14] is > 100 µM (inactive); in test [15], > 100 µM (inactive); in test [16] it was > 100 µM (inactive); in [17], > 10 µM (inactive); in [20] it was > 100 µM (inactive); in test [18], > 100 µM (inactive). The GI50 in test [19] is > 100 µM (inactive).
